Data: PubChem BioAssay AID2060494 (Molecular Pharmacology Branch, DTP, NCI, 2025)
“And” between values parts separate entries of the source, which are not always exact repeats. Equal values may be shown once.

Tested on: 435261-313-R-J1-PDC complex spheroid viability
Experiment: Anticancer human tumor 435261-313-R-J1-PDC patient-derived colon adenocarcinoma cell line growth inhibition [GQUAD]
Details: for viability, T/C: stronger effect = lower value; active = viability on the fitted dose curve at most 10% of control; inactive = the rest
Text: DNA G-quadruplex Stabilizer Agents in Combinations in Complex Spheroids
A high-throughput screen of multi-cell type tumor spheroids was designed to identify active combinations of DNA G-quadruplex stabilizer agents and targeted small molecules. Complex spheroids include a stromal component modeled by human endothelial cells (HUVEC) and fibroblasts modeled by human mesenchymal stem cells (MSCs). The concentration ranges selected for each drug and investigational agent were based upon clinically achievable concentrations if the clinical Cmax of the agent was known.
Compounds. The drugs and investigational agents: pidnarulex (CX-5461; NSC782164), APTO-253 (NSC789042), BRACO-19 (NSC847499), peposertib (NSC802822), ceralasertib (NSC780249), elimusertib (NSC800525), camonsertib (NSC841442), AZD-1390 (NSC803789), olaparib (NSC753686), talazoparib (NSC767125), ART-558 (NSC835418), sotorasib (NSC818433), MRTX-1133 (NSC836407), SN-38 (NSC673596), topotecan (NSC609699), etoposide (NSC141540), doxorubicin (NSC123127), gemcitabine (NSC613327), 5-fluorouracil (NSC19893), paclitaxel (NSC125973), vemurafenib (NSC761431), panobinostat (NSC761190), R-306465 (JNJ-16241199; NSC773264), adavosertib (NSC754352), TP-3654 (NSC805149), carboplatin (NSC241240), KSQ-4279 (NSC840948), and staurosporine (NSC755774) were obtained from the National Cancer Institute (NCI) Developmental Therapeutics Program Chemical Repository (34). The FDA-approved anticancer drug set is available from the NCI Developmental Therapeutics Program. […] The stock solutions were prepared in dimethyl sulfoxide (DMSO, Sigma-Aldrich, St. Louis, MO, cat. D2650) at 800-fold the tested concentration and stored at -70 degrees C prior to their use. All drugs and investigational agents were tested over a range starting from a high concentration at or near the clinical Cmax and decreasing in half-log increments. If the clinical Cmax for an agent had not been determined, the highest concentration tested was 10 microM.
2.3 Cell Culture. All cells were maintained in an incubator at 37 degrees C and 5% CO2 with 95% humidity. The PDC lines were cultured according to standard operating procedures established by the NCI PDMR. All PDCs were thawed and cultured in Matrigel-coated flasks prepared with a working solution of 1X Ham's F-12 nutrient mix, without supplementation (Invitrogen, cat. 11765054), 100 U/mL penicillin-streptomycin (Invitrogen, cat. 15140122), and 2.5% Matrigel (Corning Inc., cat. 354248) for the first three passages. The 857933-349-R-J2-PDC line was cultured in 6C/Colon 1B media, which includes advanced DMEM/F-12 (Thermo Fisher Scientific, cat. 12634028), 10 mM HEPES (Thermo Fisher Scientific, cat. 15630080), 1X GlutaMAX supplement (Thermo Fisher Scientific, cat. 35050061), 0.1 mg/mL primocin (InvivoGen, cat. ant-pm-2), 10% defined fetal bovine serum, heat inactivated (HyClone Laboratories Inc., cat. SH30070.03HI), 50% L-WRN conditioned media (ATCC, cat. CRL-3276), 1.25 mM N-Acetyl-L-cysteine (Sigma-Aldrich, cat. A9165), 10 mM nicotinamide (Sigma-Aldrich, cat. N0636), 1X B-27 supplement (Thermo Fisher Scientific, cat. 17504044), 1X N-2 supplement (Thermo Fisher Scientific, cat. 17502048), 10 microM Y-27632 dihydrochloride (Tocris Bioscience, cat. 1254), and 50 ng/mL human EGF recombinant protein (Thermo Fisher Scientific, cat. PHG0311). The 485176-168-R4-J1-PDC line was cultured in Panc media, which includes all 6C/Colon 1B media components plus 100 ng/mL human FGF-10 (Thermo Fisher Scientific, cat. 100-26), 500 nM SB-431542 (Selleckchem, cat. S1067), and gastrin (Tocris, cat. 3006).
[…]

[1] = curve of first compound, second compound 0.0316 µM
[2] = curve of first compound, second compound 0.1 µM
[3] = curve of first compound, second compound 0.316 µM
[4] = curve of first compound, second compound 1 µM
[5] = curve of first compound, second compound 3.16 µM
[6] = curve of first compound, second compound 10 µM
[7] = second compound 0.0316 µM, first compound 0.0316 µM
[8] = second compound 0.0316 µM, first compound 0.316 µM
[9] = second compound 0.1 µM, first compound 0.0316 µM
[10] = second compound 0.1 µM, first compound 0.316 µM
[11] = second compound 0.316 µM, first compound 0.0316 µM
[12] = second compound 0.316 µM, first compound 0.316 µM
[13] = second compound 1 µM, first compound 0.0316 µM
[14] = second compound 1 µM, first compound 0.316 µM
[15] = second compound 3.16 µM, first compound 0.0316 µM
[16] = second compound 3.16 µM, first compound 0.316 µM
[17] = second compound 10 µM, first compound 0.0316 µM
[18] = second compound 10 µM, first compound 0.316 µM
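Note: spheroids exposed to the agents for seven days before readout.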
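Throughout, for viability, T/C: percent of vehicle control viability with DMSO wells as 100%.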

Cn1ncnc1[C@H]1c2n[nH]c(=O)c3cc(F)cc(c23)N[C@@H]1c1ccc(F)cc1 + Cc1[nH]c2ccc(F)cc2c1-c1nc2c3cccnc3c3ncccc3c2[nH]1
< 0.999 nM: IC50 [5] | IC50 [6]
> 316 nM: IC50 [1] | IC50 [2] | IC50 [3] | IC50 [4]
inactive: viability, T/C (second compound 0.0316 µM, first compound 0.000999 µM) 125% | viability, T/C (second compound 0.0316 µM, first compound 0.00316 µM) 95.4% | viability, T/C (second compound 0.0316 µM, first compound 0.00999 µM) 87.6% | viability, T/C [7] 77.8% | viability, T/C (second compound 0.0316 µM, first compound 0.0999 µM) 93.9% | viability, T/C [8] 87% | viability, T/C (second compound 0.1 µM, first compound 0.000999 µM) 79.2% | viability, T/C (second compound 0.1 µM, first compound 0.00316 µM) 83.9% | viability, T/C (second compound 0.1 µM, first compound 0.00999 µM) 114% | viability, T/C [9] 101% | viability, T/C (second compound 0.1 µM, first compound 0.0999 µM) 99.5% | viability, T/C [10] 80.9% | viability, T/C (second compound 0.316 µM, first compound 0.000999 µM) 86.9% | viability, T/C (second compound 0.316 µM, first compound 0.00316 µM) 110% | viability, T/C (second compound 0.316 µM, first compound 0.00999 µM) 92.1% | viability, T/C [11] 71.7% | viability, T/C (second compound 0.316 µM, first compound 0.0999 µM) 82.9% | viability, T/C [12] 68.5% | viability, T/C (second compound 1 µM, first compound 0.000999 µM) 60.2% | viability, T/C (second compound 1 µM, first compound 0.00316 µM) 67.9% | viability, T/C (second compound 1 µM, first compound 0.00999 µM) 94.8% | viability, T/C [13] 72.2% | viability, T/C (second compound 1 µM, first compound 0.0999 µM) 60.3% | viability, T/C [14] 56.2% | viability, T/C (second compound 3.16 µM, first compound 0.000999 µM) 43.7% | viability, T/C (second compound 3.16 µM, first compound 0.00316 µM) 37.5% | viability, T/C (second compound 3.16 µM, first compound 0.00999 µM) 25.6% | viability, T/C [15] 38.6% | viability, T/C (second compound 3.16 µM, first compound 0.0999 µM) 31.8% | viability, T/C [16] 41.7% | viability, T/C (second compound 10 µM, first compound 0.000999 µM) 18.4% | viability, T/C (second compound 10 µM, first compound 0.00316 µM) 32.4% | viability, T/C (second compound 10 µM, first compound 0.00999 µM) 31.2% | viability, T/C [17] 22.7% | viability, T/C (second compound 10 µM, first compound 0.0999 µM) 22.6% | viability, T/C [18] 22.1%

Nc1ccn(C2OC(CO)C(O)C2(F)F)c(=O)n1 (stereo unspecified) + Cc1[nH]c2ccc(F)cc2c1-c1nc2c3cccnc3c3ncccc3c2[nH]1
< 31.6 nM: IC50 [2] | IC50 [3] | IC50 [4] | IC50 [5] | IC50 [6]
161 nM: IC50 [1]
inactive: viability, T/C [7] 74% | viability, T/C (second compound 0.0316 µM, first compound 0.1 µM) 50.2% | viability, T/C [8] 47.9% | viability, T/C (second compound 0.0316 µM, first compound 1 µM) 42% | viability, T/C (second compound 0.0316 µM, first compound 3.16 µM) 57.9% | viability, T/C (second compound 0.0316 µM, first compound 10 µM) 51.1% | viability, T/C [9] 53.2% | viability, T/C (second compound 0.1 µM, first compound 0.1 µM) 45.5% | viability, T/C [10] 42.1% | viability, T/C (second compound 0.1 µM, first compound 1 µM) 49.5% | viability, T/C (second compound 0.1 µM, first compound 3.16 µM) 50.3% | viability, T/C (second compound 0.1 µM, first compound 10 µM) 51.9% | viability, T/C [11] 39.5% | viability, T/C (second compound 0.316 µM, first compound 0.1 µM) 50% | viability, T/C [12] 46.3% | viability, T/C (second compound 0.316 µM, first compound 1 µM) 44% | viability, T/C (second compound 0.316 µM, first compound 3.16 µM) 48.1% | viability, T/C (second compound 0.316 µM, first compound 10 µM) 33.1% | viability, T/C [13] 50.4% | viability, T/C (second compound 1 µM, first compound 0.1 µM) 40.6% | viability, T/C [14] 42.1% | viability, T/C (second compound 1 µM, first compound 1 µM) 34.7% | viability, T/C (second compound 1 µM, first compound 3.16 µM) 41.8% | viability, T/C (second compound 1 µM, first compound 10 µM) 35.5% | viability, T/C [15] 26.7% | viability, T/C (second compound 3.16 µM, first compound 0.1 µM) 31.9% | viability, T/C [16] 25.5% | viability, T/C (second compound 3.16 µM, first compound 1 µM) 24.7% | viability, T/C (second compound 3.16 µM, first compound 3.16 µM) 28.9% | viability, T/C (second compound 3.16 µM, first compound 10 µM) 25.9% | viability, T/C [17] 16.3% | viability, T/C (second compound 10 µM, first compound 0.1 µM) 19.1% | viability, T/C [18] 18% | viability, T/C (second compound 10 µM, first compound 1 µM) 20.2% | viability, T/C (second compound 10 µM, first compound 3.16 µM) 15.7% | viability, T/C (second compound 10 µM, first compound 10 µM) 18.7%

C#Cc1c(F)ccc2cc(O)cc(-c3ncc4c(N5CC6CCC(C5)N6)nc(OCC56CCCN5CC(F)C6)nc4c3F)c12 (stereo unspecified)
inactive: viability, T/C (compound 0.0316 µM) 108% and 99.7% and 99.5% | viability, T/C (compound 0.1 µM) 99.8% and 93.3% and 92.1% | viability, T/C (compound 0.316 µM) 92.1% and 98.2% and 99.7% | viability, T/C (compound 1 µM) 80.9% and 54.3% and 80.5% | viability, T/C (compound 3.16 µM) 51.5% and 76.6% and 64.6% | viability, T/C (compound 10 µM) 57.3% and 53.5% and 39.1%
> 10000 nM and 6010 nM: IC50 (curve of compound)

COc1ncnc(C2CC2)c1-c1ncc2cnn(Cc3ccc(-c4nc(C(F)(F)F)cn4C(C)C)cc3)c2n1
> 10000 nM: IC50 (curve of compound)
inactive: viability, T/C (compound 0.0316 µM) 89.1% and 87.3% | viability, T/C (compound 0.1 µM) 75.2% and 70.5% | viability, T/C (compound 0.316 µM) 85.4% and 92.4% | viability, T/C (compound 1 µM) 113% and 83% | viability, T/C (compound 3.16 µM) 96.8% and 88.3% | viability, T/C (compound 10 µM) 84.5% and 65.8%

CCc1c2c(nc3ccc(O)cc13)-c1cc3c(c(=O)n1C2)COC(=O)[C@]3(O)CC
inactive: viability, T/C (compound 0.000999 µM) 92.5% and 68.7% and 82% | viability, T/C (compound 0.00316 µM) 48.6% and 84.6% and 53.4% | viability, T/C (compound 0.00999 µM) 66.8% and 82.9% and 63.2% | viability, T/C (compound 0.0316 µM) 48.6% and 83.2% and 48.7% | viability, T/C (compound 0.0999 µM) 44% and 53.8% and 41.1% | viability, T/C (compound 0.316 µM) 30.8% and 54.3% and 25.1%

COc1ccc([C@@H](O)c2cc(-c3ncnc4cc(N5CCOCC5)ccc34)c(F)cc2Cl)nn1
inactive: viability, T/C (compound 0.0316 µM) 105% and 99% and 90.9% | viability, T/C (compound 0.1 µM) 69.6% and 82.1% and 74.6% | viability, T/C (compound 0.316 µM) 81.5% and 103% and 90.2% | viability, T/C (compound 1 µM) 62.6% and 71.3% and 49.3% | viability, T/C (compound 3.16 µM) 38.6% and 47.8% and 37.7% | viability, T/C (compound 10 µM) 30.6% and 31.7% and 25.6%
1930 nM and 2610 nM and 976 nM: IC50 (curve of compound)
